Assay results taken from US20040048892A1, “Treatment of diseases with adamantane derivatives” (priority 2000, published 2004).
Read-outs that look alike come from different tables or passages of the source.

Tests used:
[1] = system: inhibitory postsynaptic currents (IPSC) in outer hair cells (OHCs); experiment: Patch-clamp recording of inhibitory postsynaptic currents (IPSC) in outer hair cells; format: cell-based, Wistar rats
Experimental: (§1) The apical turn of the organ of Corti was dissected from cochleae of three to six week old Wistar rats as described previously (Oliver et al., 1999, J Physiol (Lond) 519, 791-800; Oliver et al., 2000, Neuron 26, 595-601). The preparation was performed in a solution containing (in mM) 144 NaCl, 5.8 KCl, 0.1 CaCl2, 2.1 MgCl2, 10 HEPES, 0.7 Na2HPO4, 5.6 glucose, pH adjusted to 7.3 with NaOH. For recordings, OHCs located between half and one turn from the apex of the cochlea were chosen. If necessary, supporting cells were removed with gentle suction from a cleaning pipette carefully avoiding mechanical disturbance of the efferent nerve terminals.
Whole-cell patch-clamp recordings were performed with an Axopatch 200B amplifier (Axon Instruments, Foster City, Calif.) at room temperature (22-25° C.). Electrodes were pulled from quartz glass, had resistances of 2-3 MΩ and were filled with intracellular solution (in mM): 135 KCl, 3.5 MgCl2, 0.1 CaCl2, 5 EGTA, 5 HEPES, 2.5 Na2ATP. For one series of experiments, an intracellular solution containing the Ca^2+-chelator BAPTA was used (in mM): 120 KCl, 3.5 MgCl2, 10 BAPTA, 5 HEPES, 2.5 Na2ATP. The pH of both solutions was adjusted to pH 7.3 with KOH. Membrane potential was corrected for the electrode junction potential (−4 mV). Whole-cell series resistance ranged from 4 to 9 MΩ and was not compensated. Currents were filtered at 1 kHz and sampled at 5 kHz. The specimen were continuously superfused with extracellular solution (in mM: 144 NaCl, 5.8 KCl, 2 CaCl2, 0.9 MgCl2, 10 HEPES, 0.7 Na2HPO4, 5.6 glucose, pH adjusted to 7.3 with NaOH). Chemicals as well as depolarizing solutions were applied via a glass capillary (diameter approximately 80 μm) positioned close to the organ of Corti. […]
In FIG. 1, postsynaptic currents were recorded from OHCs in voltage-clamp experiments when cells were held at −64 mV and the whole Corti preparation was superfused with high extracellular K^+ to depolarize the presynapse. […] This dose-dependent response determined for the IPSC in OHCs is illustrated in FIG. 1B.

α9/α10 nAChR = target: T1, α9/α10 nAChR (Rattus norvegicus, UniProt P43144+Q9JLB5); experiment: Two-electrode voltage-clamp on α9/α10 nAChR expressed in Xenopus oocytes; format: cell-based
T1 construct: The coding region of the rat α10 gene; expressed in transfected cells; host or cells: Xenopus laevis oocytes (mRNA injection)
T1 sequence (P43144 26-479): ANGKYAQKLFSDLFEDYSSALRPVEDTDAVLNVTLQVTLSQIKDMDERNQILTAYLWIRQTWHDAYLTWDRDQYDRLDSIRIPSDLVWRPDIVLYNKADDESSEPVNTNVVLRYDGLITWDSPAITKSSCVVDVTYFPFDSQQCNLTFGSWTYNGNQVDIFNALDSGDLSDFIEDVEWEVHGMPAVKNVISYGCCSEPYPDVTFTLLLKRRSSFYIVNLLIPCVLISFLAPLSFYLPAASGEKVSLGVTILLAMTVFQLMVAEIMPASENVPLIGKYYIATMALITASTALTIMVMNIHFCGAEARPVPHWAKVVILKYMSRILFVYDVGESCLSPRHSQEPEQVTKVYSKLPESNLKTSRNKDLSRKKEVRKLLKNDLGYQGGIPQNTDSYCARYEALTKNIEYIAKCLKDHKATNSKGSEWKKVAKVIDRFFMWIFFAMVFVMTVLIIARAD
T1 sequence (Q9JLB5 25-447): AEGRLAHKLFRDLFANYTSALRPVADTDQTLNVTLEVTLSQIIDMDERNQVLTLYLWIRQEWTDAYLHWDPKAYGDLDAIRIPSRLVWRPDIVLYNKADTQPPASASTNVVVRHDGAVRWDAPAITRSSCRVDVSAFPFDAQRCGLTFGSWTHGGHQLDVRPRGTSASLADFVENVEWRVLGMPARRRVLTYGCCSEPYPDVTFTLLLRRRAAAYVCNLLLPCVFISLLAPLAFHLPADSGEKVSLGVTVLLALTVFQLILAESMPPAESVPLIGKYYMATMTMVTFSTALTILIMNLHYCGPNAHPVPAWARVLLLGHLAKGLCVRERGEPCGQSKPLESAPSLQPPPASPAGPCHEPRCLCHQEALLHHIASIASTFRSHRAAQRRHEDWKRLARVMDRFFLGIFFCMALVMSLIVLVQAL
Experimental: (§2) In vitro mRNA synthesis and oocyte injections were performed as previously described (Fakler et al., 1995, Cell 80, 149-154; Oliver et al., 2000, see above). The electrophysiology on oocytes was also as described previously (Oliver et al., 2000, see above). In detail, AChR subunits and SK2 channels were heterologously expressed in Xenopus oocytes. Oocytes were surgically removed from adult females and dissected manually. 4-5 day prior to electrophysiological recordings, Dumont stage VI oocytes were injected with about 50 ng RNA. For coexpression experiments, the total amount of RNA was kept constant and the different RNAs were coinjected in equal concentrations. Two-electrode voltage-clamp measurements were performed with a TurboTec 01C amplifier (npi, Tamm, Germany), using microelectrodes of 0.1 to 0.5 MΩ filled with 3 M KCl. Extracellular medium was CaNFR, containing (in mM): 120 KCl, 2.5 KCl, 2 CaCl2, 10 HEPES, pH adjusted to 7.3 with NaOH. For experiments in the absence of extracellular Ca^2+, the extracellular solution was MgNFR (in mM): 120 KCl, 2.5 KCl, 2 MgCl2, 10 HEPES, pH adjusted to 7.3 with NaOH. ACh and memantine were added from stock solutions and applied through an application system, that allowed solution exchange with a time constant of ˜1s. Currents were filtered at 100 Hz and sampled at a frequency of 1 kHz. Dose-inhibition relations obtained from electrophysiological experiments were fitted to the empirical Hill equation, [formula]
where Inorm is the normalized current, c is the blocker concentration, IC50 is the half-inhibitory concentration, and nH is the Hill coefficient. Data analysis and fitting was performed with IgorPro (Wavemetrics, Lake Oswego, Oreg.) on a Macintosh PowerPC. Unless stated otherwise, data are presented as mean±standard deviation.
The coding region of the rat α10 gene (GenBank Accession No. AF196344) was amplified from rat brain cDNA by PCR using 5′- and 3′-adapter-primers containing suitable restriction sites (GA-GACCCGGGAGCTCCACC, […] and […]). The amplified fragments were subcloned into the Xenopus oocyte expression vector pGEM-HE (gift of Dr. J. Tytgat), yielding pGEM-HE-nAChR-α10, verified by sequencing. Capped mRNAs for α9, α10 and SK2 were synthesized in vitro using the mMESSAGE mMACHINE kit (Ambion, Austin, Tex.). To detect α10 and α9 transcripts, PCR was performed using reverse transcribed RNA isolated from either OHCs (containing some Deiters cells) or supporting cells (Deiters and Hensen's cells) as template. Cells were collected from rat organs of Corti using suction glass micropipettes (diameter 10 μm). RNA was prepared from ˜100 cells of each fraction using the Qiagen RNeasy kit (Qiagen, Hilden, FRG) according to the manufacturers instructions. The oligonucleotides used as primers in the PCR reactions were chosen to span an intron in the human α9 and α10 genes to allow differentiation between products originating from cDNA and products originating from contaminating genomic DNA.
In (A) currents evoked by activation of α9/α10 nAChRs are dependent on external Ca^2+. Traces show subsequent applications of 100 μM ACh to the same oocyte in CaNFR (Ca^2+) and MgNFR (Mg^2+) at −80 mV. (B) Currents from homomeric α9 (upper trace) and heteromeric α9/α10 nAChRs (lower trace), recorded by application of 100 μM ACh in nominally Ca^2+-free external solution (MgNFR; −80 mV). (C) Current amplitudes from oocytes expressing α9 and α9/α10, recorded as in FIG. 3B (mean±standard error from 12 and 15 oocytes, respectively). (D) ACh-induced (100 μM) currents recorded from α9/α10 nAChRs in the presence of the memantine concentrations indicated. (E) Memantine dose-inhibition curves of α9/α10 nAChR. Peak currents were recorded as in (D) and normalized to the current amplitude after washout of the blocker. […] (F) I-v relations of α9/α10 nAChR recorded in the absence (black) and presence (gray trace) of 1 μM memantine in response to 2 s voltage ramps from −100 to +50 mV. […]

[2] = target: T2, nAChR-induced SK2 current (α9/α10 nAChR with SK2 channels) (Rattus norvegicus, UniProt P43144+Q9JLB5); experiment: nAChR-induced SK2 current in oocytes coexpressing α9, α10 and SK2; format: cell-based; conditions: −30 mV, 100 μM ACh
T2 construct: The coding region of the rat α10 gene; expressed in transfected cells; host or cells: Xenopus laevis oocytes (mRNA co-injection)
T2 sequence (P43144 26-479): as the sequence (P43144 26-479) above
T2 sequence (Q9JLB5 25-447): as the sequence (Q9JLB5 25-447) above
Experimental: as §2, with “ACh and memantine were added from stock solutions and applied through an application system, that allowed solution exchange with a time constant of ˜1s. Currents were filtered at 100 Hz and sampled at a frequency of 1 kHz. Dose-inhibition relations obtained from electrophysiological experiments were fitted to the empirical Hill equation, [formula]” left out
(A) Application of 100 μM ACh for the time indicated to an oocyte coexpressing α9, α10, and SK2. […] Peak outward currents were recorded at −30 mV and were normalized to the values preceding memantine application.

nAChR currents in OHCs = target: T3, nAChR currents in OHCs (Rattus norvegicus, UniProt P43144+Q9JLB5); experiment: Steady-state block of nAChR currents in OHCs (BAPTA intracellular solution); format: cell-based, Wistar rats; conditions: −94 mV, 200 μM ACh, 10 mM BAPTA
T3 construct: Currents through nAChRs were recorded from an OHC; from tissue; host or cells: outer hair cells in the apical turn of the organ of Corti, Wistar rat
T3 sequence (P43144 26-479): as the sequence (P43144 26-479) above
T3 sequence (Q9JLB5 25-447): as the sequence (Q9JLB5 25-447) above
Experimental: as §1
Whole-cell patch-clamp recordings were performed with an Axopatch 200B amplifier (Axon Instruments, Foster City, Calif.) at room temperature (22-25° C.). Electrodes were pulled from quartz glass, had resistances of 2-3 MΩ and were filled with intracellular solution (in mM): 135 KCl, 3.5 MgCl2, 0.1 CaCl2, 5 EGTA, 5 HEPES, 2.5 Na2ATP. […]
(A) Steady-state block of nAChR currents in OHCs by memantine. Currents through nAChRs were recorded from an OHC at a holding potential of −94 mV. […] (B) Dose-inhibition relation for memantine block of nAChR currents (squares), recorded from 4 OHCs as in (A). Steady-state amplitudes were normalized to the value recorded in the absence of memantine. […]

[3] = target: T4, α9/α10 heteromeric acetylcholine receptors (Rattus norvegicus, UniProt P43144+Q9JLB5); experiment: Experiment 6: voltage-clamp on alpha9/alpha10 acetylcholine receptors in Xenopus laevis oocytes; format: cell-based; conditions: cells held at −30 mV, 100 μM acetylcholine; read-out: halfmaximal inhibition concentration
T4 construct: The coding region of the rat α10 gene; expressed in transfected cells; host or cells: Xenopus laevis oocytes (mRNA injection)
T4 sequence (P43144 26-479): as the sequence (P43144 26-479) above
T4 sequence (Q9JLB5 25-447): as the sequence (Q9JLB5 25-447) above
Experimental: as §2, with “For experiments in the absence of extracellular Ca^2+, the extracellular solution was MgNFR (in mM): 120 KCl, 2.5 KCl, 2 MgCl2, 10 HEPES, pH adjusted to 7.3 with NaOH. ACh and memantine were added from stock solutions and applied through an application system, that allowed solution exchange with a time constant of ˜1s. Currents were filtered at 100 Hz and sampled at a frequency of 1 kHz. Dose-inhibition relations obtained from electrophysiological experiments were fitted to the empirical Hill equation, [formula]” left out
For further characterization of memantine treatment on the nAChR, the mRNA of alpha9/alpha10 subunits of the acetylcholine receptor were injected in oocytes of Xenopus laevis. […] In this experiment the polarization potential of the cells was measured after application of 100 μM acetylcholine in the presence or absence of memantine. […]

[4] = target: NMDA-type glutamate receptors; conditions: at −70 mV; cited from earlier work
neuronal α4/β2 nAChRs = neuronal α4/β2 nAChRs (Homo sapiens, UniProt P17787+P43681); conditions: at −100 mV; cited from earlier work
Chain of neuronal α4/β2 nAChRs (P43681 29-627 limits assumed): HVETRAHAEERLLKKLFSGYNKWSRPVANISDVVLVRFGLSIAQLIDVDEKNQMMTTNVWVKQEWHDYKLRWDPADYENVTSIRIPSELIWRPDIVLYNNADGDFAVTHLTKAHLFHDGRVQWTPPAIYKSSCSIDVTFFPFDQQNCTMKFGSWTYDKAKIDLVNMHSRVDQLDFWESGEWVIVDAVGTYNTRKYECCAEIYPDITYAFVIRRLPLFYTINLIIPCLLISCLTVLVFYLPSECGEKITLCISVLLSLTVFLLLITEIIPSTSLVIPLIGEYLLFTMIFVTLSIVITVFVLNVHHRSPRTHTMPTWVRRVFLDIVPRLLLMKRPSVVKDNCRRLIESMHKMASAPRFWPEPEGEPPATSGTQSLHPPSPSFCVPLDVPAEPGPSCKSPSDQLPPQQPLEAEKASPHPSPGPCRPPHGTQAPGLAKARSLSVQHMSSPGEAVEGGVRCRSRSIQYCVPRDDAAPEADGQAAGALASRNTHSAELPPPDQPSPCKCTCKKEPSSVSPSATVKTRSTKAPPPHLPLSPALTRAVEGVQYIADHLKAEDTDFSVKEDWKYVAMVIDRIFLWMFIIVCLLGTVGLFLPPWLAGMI
Chain of neuronal α4/β2 nAChRs (P17787 26-502): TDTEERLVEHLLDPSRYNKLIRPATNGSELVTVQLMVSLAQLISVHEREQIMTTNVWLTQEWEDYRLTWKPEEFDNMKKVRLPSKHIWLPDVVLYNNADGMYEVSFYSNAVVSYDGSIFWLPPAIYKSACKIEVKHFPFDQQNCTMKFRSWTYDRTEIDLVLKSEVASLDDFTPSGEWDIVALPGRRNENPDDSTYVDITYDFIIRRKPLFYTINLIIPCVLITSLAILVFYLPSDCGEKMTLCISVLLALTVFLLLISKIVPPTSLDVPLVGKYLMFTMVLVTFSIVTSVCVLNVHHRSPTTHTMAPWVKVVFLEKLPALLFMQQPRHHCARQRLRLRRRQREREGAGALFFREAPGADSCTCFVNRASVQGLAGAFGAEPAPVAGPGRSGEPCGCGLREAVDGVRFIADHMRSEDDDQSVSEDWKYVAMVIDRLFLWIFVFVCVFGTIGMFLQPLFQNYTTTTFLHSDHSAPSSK

## CC12CC3CC(C)(C1)CC(N)(C3)C2 [memantine, 3.5-dimethyl-1-adamantanamine]
[1]
  Hill coefficient of inhibition of IPSCs: 2
[1]; IPSCs in OHCs vs SK2 currents in oocytes
  fold higher concentrations required for inhibition of IPSCs than for inhibition of SK2 currents in the oocyte system: 10 fold
[1]; Rattus norvegicus, iPSC, read-out: IC50 for inhibition of IPSC in OHCs
  IC50: ~16600 nM
α9/α10 nAChR; 1 μM memantine, voltage ramps, MgNFR
  Increase of memantine block from +50 mV to −80 mV (factor): 1.6
α9/α10 nAChR; CaNFR (2 mM Ca2+), 100 μM ACh, peak currents, read-out: IC50 of block of α9/α10 nAChR current
  IC50: 1300 nM
α9/α10 nAChR; CaNFR, 100 μM ACh
  Hill coefficient nH of block of α9/α10 nAChR current: 1.0
α9/α10 nAChR; MgNFR (nominally Ca2+-free), 100 μM ACh, peak currents, read-out: IC50 of block of α9/α10 nAChR current
  IC50: 1600 nM
α9/α10 nAChR; MgNFR, 100 μM ACh
  Hill coefficient nH of block of α9/α10 nAChR current: 1.2
α9/α10 nAChR; summary of FIGS. 3E, 5B, read-out: affinity for memantine of α9/α10 receptors
  IC50: ~1000 nM
[2]
  Hill coefficient nH of inhibition of the nAChR-induced SK2 current: 1.1
[2]; peak outward currents, read-out: IC50 of inhibition of the nAChR-induced SK2 current
  IC50: 700 nM
nAChR currents in OHCs
  Hill coefficient nH of block of nAChR currents in OHCs: 0.9
nAChR currents in OHCs; steady-state
  IC50: 1100 nM
[3]
  IC50: ~1000 nM
[4]
  IC50: ~1000 nM
Neuronal α4/β2 nAChRs
  IC50: 7000 nM
